Here are results for 88 compounds from a melting point compilation (Tetko et al.; mined from patent text by program, amines drawn as free bases though some values may be those of a salt).

The structures appear in SMILES notation. Bounds are passed on as bounds.

In general, melting point refers to the temperature, or range, at which the solid turns liquid. The compound `CC(C)OC(=O)Nc1ccc(Cl)c(C(=O)OC(C)C)c1` displayed a melting point of 108 to 109 °C.

The compound `NC(=O)c1cc(-c2ccc(F)cc2)ccc1O` registered a melting point of 206 to 207 °C.

With `CCNCC1CCN(c2cc3c(cc2Cl)c(=O)c(C(=O)O)cn3C2CC2)C1` (stereo not drawn), the melting point is > 310 °C.

For the compound `CCCCCc1cn(CCCC)c(=O)n1Cc1ccc(-c2ccccc2-c2nnn[nH]2)nc1`, the melting point was 176 to 177 °C.

As for `Nc1c([N+](=O)[O-])sc2c(F)cccc12`, the melting point fell in the range of 238 to 240 °C.

Take `CC(C)(C)OC(=O)N1CCC[C@H]1C(=O)O[C@H]1CO[C@H]2[C@H]1OC[C@H]2O[N+](=O)[O-]`: the melting point was 109 to 111 °C.

In the case of `CCOC(=O)C(=Cc1ccccc1[N+](=O)[O-])C(=O)C(OCC)OCC`, the melting point lay within 66 to 67.5 °C.

Turning to `C=C(C)n1c(=O)n(CCN2CCC(N(C)C(=O)c3ccccc3)CC2)c2ccccc21`, the melting point fell in the range of 120 to 122 °C.

Take `OCc1cnoc1-c1ccc(F)cc1F`: the melting point fell in the range of 60 to 61 °C.

The compound `CC12CCC(=O)C=C1CCC1C3CC(OCCO)C(O)(C(=O)CO)C3(C)CC(O)C12F` (stereo not drawn) yielded a melting point of 162 to 165 °C.

Turning to `CCc1cc(C(=O)c2ccccc2Cl)c(-n2c(C)nnc2CNC(=O)/C=C/c2ccccc2N)s1`, the melting point is 141 to 143 °C.

For `CC(C)(C)C1CC(=Cc2ccccc2)C(=O)C(=Cc2ccccc2)C1` (stereo not drawn), the melting point is 137 to 139 °C.

The compound `CS(=O)(=O)c1ccc(C2=C(c3ccccc3)C(=O)c3ccccc32)cc1` showed a melting point of 167 to 168 °C.

On to `CCCCCCCCCCCCCCCCOc1c2ncnc(SCC(=O)OCCCC)c2nn1C`, for which the melting point is 64 to 67 °C.

Compound `CCCc1c(/C=C/c2ccccc2)nc2ccc(C(=O)O)cn2c1=O` registered a melting point of 250 to 252 °C.

`CCOC(=S)NCCN1CCC(Nc2nc3ccccc3n2Cc2ccc(F)cc2)CC1` showed a melting point of 149 °C.

For `CCCCCCCN(CC)C(=O)CCCc1ccc(NS(C)(=O)=O)cc1`, the melting point fell in the range of 54 to 55 °C.

Regarding `COc1cc2c(c3c1OC(C)(C)C3)C(c1cccc(NC(=O)c3cccnc3)c1)=NC(C)(C)C2`, the melting point was in the range of 213 to 219 °C.

Regarding `O=C1OC(=O)C(c2ccccc2)=C1c1ccccc1`, the melting point lay in the range of 183 to 184 °C.

As to `COc1cc(CCCS2(OCC(=O)O)C=CN=C2)cc(OCc2ccc3ccccc3c2)c1` (stereo not drawn), the melting point lay within 160 to 161 °C.

With `CC#CCOc1cc(Oc2ccc(Cl)cc2F)ncn1`, the melting point was 118 °C.

For `CCCc1nc2c(N)nc3ccccc3c2n1CCCC(=O)CC(C)C`, the melting point lay in the range of 136 to 138 °C.

On to `NS(=O)(=O)c1ccc(-c2c(-c3cccc(F)c3)noc2CC(=O)O)cc1`, for which the melting point lay in the range of 242 to 250 °C.

For `CCCc1cccc(N2CC(=O)NC(=O)N2)c1`, the melting point lay in the range of 188 to 190 °C.

Compound `Nc1c(NCCCOc2cccc(C=O)c2)c(=O)c1=O` had a melting point of 203 to 206 °C.

Turning to `CCN(CC)Cc1csc(N)c1C(=O)c1ccc(Cl)cc1`, the melting point lay in the range of 78 to 80 °C.

For the compound `CCCCn1c(=O)c(C(=O)OCC)c(N)c2cnc(C)nc21`, the melting point was 214 to 216 °C.

Compound `CC(=O)N1CCC(C(=O)N(CCCN2CC3CN(C(=O)c4c(C)ccnc4C)CC3C2)c2ccc(C)c(Cl)c2)CC1` (stereo not drawn) gave a melting point of 81.5 to 83.6 °C.

`CCn1nc2c(N)nc3ccccc3c2c1CCS(C)(=O)=O` showed a melting point of 220 to 222 °C.

As for `CC(=O)c1c(Cl)n(C)c2ccccc12`, the melting point came out at 180 °C.

Regarding `CCO[C@@H]1[C@@H](OC)[C@H](C)O[C@@H](ON=Cc2ccc(C#Cc3ccc(OC(F)(F)F)cc3)cc2)[C@@H]1OC`, the melting point was in the range of 82 to 87 °C.

Turning to `CCCNC(=S)N1CCc2[nH]cnc2C1`, the melting point was found to be 151 °C.

`CCCCn1c2c(c3cc(OC)c(OC)cc3c1=O)C(=O)c1cc3c(cc1-2)OCO3` registered a melting point of 280 to 284 °C.

With `CCCCC(C)C(O)CCc1cc(O)c(O)cc1Br` (stereo not drawn), the melting point is 68 to 71 °C.

As to `Cc1ccc(C(=O)Nc2nc(C(Cl)(Cl)Cl)ns2)cc1`, the melting point was determined as 127 °C.

`COc1ccc2oc3ccccc3c(=O)c2c1`: the melting point lay within 128 to 130 °C.

In turn, `CCNC(=O)N(C)Cc1cccc2c1CN(C1CCC(=O)NC1=O)C2=O` (stereo not drawn) showed a melting point of 183 to 185 °C.

With `CCCCCCCCOc1ccc(C(=O)Oc2ccc3c(c2)C(C)c2cc(O)ccc2-3)cc1` (stereo not drawn), the melting point was 140 to 143 °C.

For `Clc1ccc2c(N[C@@H]3CCC[C@H](Nc4ccnc5cc(Cl)ccc45)C3)ccnc2c1`, the melting point is > 250 °C.

As to `CC(=O)N1CCCc2cc(CO)ccc21`, the melting point was 95 to 106 °C.

For the compound `O=C(OCc1ccccc1)C(O)N1C(=O)C2CC=CCC21` (stereo not drawn), the melting point was in the range of 92 to 93 °C.

With `CC(=O)OC[C@@H]1C=C[C@H](n2cnc3c(Cl)nc(N)nc32)C1`, the melting point is 124 to 127 °C.

For `CCCn1c(=O)c2[nH]c(C(C)=Cc3ccccc3)nc2n(CCC)c1=O`, the melting point was 194 to 196 °C.

`COc1cccc(CNS(=O)(=O)Cc2ccc3[nH]cc(CC#N)c3c2)c1` gave a melting point of 125 to 126 °C.

The compound `CCCCN=C(CS(C)=O)c1ccccc1O` (stereo not drawn) registered a melting point of 128 to 129 °C.

`OC(Cn1ccnc1)(c1ccc(Cl)cc1)c1ccc(Cl)cc1`: the melting point was in the range of 208 to 210 °C.

`O=C1c2cccc(NC(=S)Nc3ncccc3Br)c2C2CCCCN12` (stereo not drawn) came in with a melting point of 180 °C.

On to `S=c1n(CNc2ccc(Br)cc2)nc(-c2ccncc2)n1-c1ccccc1`, for which the melting point lay within 208 to 209 °C.

In turn, `CCCCCC(C)Oc1cc(O)c2c(c1)OC(C)(C)C1CCC(=O)C=C21` (stereo not drawn) returned a melting point of 185 to 189 °C.

Compound `CCc1nc2c(C)cc(C)nc2n1-c1ccc(CCNC(=O)NS(=O)(=O)c2ccncc2)cc1` showed a melting point of 228 to 229 °C.

Regarding `COc1ccccc1CN1Cc2cc(OC)c(OCc3ccccc3)cc2C(OC)C1` (stereo not drawn), the melting point is 101 to 102 °C.

Compound `Cc1c(Cl)cc(C(=O)O)c(Cl)c1N` returned a melting point of 218 to 221 °C.

`Cc1cnc2ccc3c(c2c1)OC(CN1CC=C(c2c[nH]c4ccccc24)CC1)CO3` (stereo not drawn) displayed a melting point of 211 to 213 °C.

`O=C(O)C1CCc2c(c3ccccc3n2C(=O)c2cccc(C(F)(F)F)c2)C1` (stereo not drawn) displayed a melting point of 173 to 175 °C.

In the case of `O=C(NCCN1CCCC1)c1ccc(=O)n(Cc2ccc(-c3ccccc3)cc2)c1`, the melting point was 142 to 152 °C.

With `COc1cccc(C(=O)Nc2c[nH]nc2C(=O)NCCC#N)c1`, the melting point is 118 to 121 °C.

`Cc1ccc(S(=O)(=O)OCC2CC(OS(=O)(=O)c3ccc(C)cc3)CN2S(=O)(=O)c2ccc(C)cc2)cc1` (stereo not drawn) registered a melting point of 134 to 135 °C.

Take `CCCCc1nc2c(N)nc3ccccc3c2n1CCCCCCl`: the melting point was in the range of 144 to 146 °C.

Compound `Cc1cccc(Nc2cc(Cl)nc(SCC(=O)NN3CCCCC3)n2)c1C` had a melting point of 113 to 115 °C.

`O=C(Nc1ccccc1[N+](=O)[O-])c1ccc(-n2nc(C(F)(F)F)cc2C(F)(F)F)cc1` yielded a melting point of 173 to 175 °C.

`Cc1cc(S(=O)(=O)O)c(NC(=O)Nc2cccc(Br)c2)cc1Cl` came in with a melting point of 275 °C.

Compound `CCOC(=O)c1sc(SC)c2c1CCc1nc(C)oc1-2` returned a melting point of 131 to 132 °C.

Take `Cc1cc(NS(=O)(=O)c2ccccc2)cnc1CCCC(=O)O`: the melting point lay within 169 to 179 °C.

Take `O=C(O)c1ccc2c(c1)CCC(CCN1CCC(c3ccccc3)CC1)C2=O` (stereo not drawn): the melting point was in the range of 118 to 120 °C.

Compound `CCCCOC(=O)N1CCN(C(=O)c2cc(S(=O)(=O)N(C)C)ccc2N)CC1` returned a melting point of 175 to 177 °C.

`CCC(C)(C)c1ccc(OC(C)=O)c(C2(OC(C)=O)C(=O)c3ccccc3C2=O)c1` yielded a melting point of 146 to 151 °C.

As to `Cc1cccc(OC(=O)C(=O)c2c[nH]c3ccccc23)c1`, the melting point was 194 to 197 °C.

With `CCCCCCOc1nc(N)c2ncn(C3CCCCC3)c2n1`, the melting point was in the range of 57 to 60 °C.

Regarding `CCc1cc(/C=C/C(N)=O)ccc1Cl`, the melting point lay in the range of 152 to 153 °C.

For the compound `CC(CO)n1cnc2cnc3ccccc3c21` (stereo not drawn), the melting point was 170 to 174 °C.

`Cc1cc(F)ccc1-c1ccc(S(=O)(=O)N2c3ccccc3CC2C(=O)NCc2ccccc2[N+](=O)[O-])cc1` (stereo not drawn) displayed a melting point of 64 to 66 °C.

On to `CCCCCCC(C)Oc1ccc(-c2ccc(O)cc2)cc1F` (stereo not drawn), for which the melting point was 65.2 to 66.7 °C.

On to `COc1ccc(COc2ccc(NC(C)=O)cc2C(=O)C=Cc2ccc(OCc3ccccc3)cc2)cc1`, for which the melting point fell in the range of 201 to 202 °C.

Regarding `Cc1ccc(S(=O)(=O)N(Cc2ccccc2)N(C)C(=O)C2CC(S)CN2S(=O)(=O)c2ccc3ccccc3c2)cc1` (stereo not drawn), the melting point is 82.5 °C.

As to `O=C(c1ccccc1)P1(=O)Oc2ccccc2-c2ccccc21` (stereo not drawn), the melting point was in the range of 134 to 135 °C.

Compound `CC(C)(O)CCC[C@@](C)(CC#CC(O)(C(F)(F)F)C(F)(F)F)[C@H]1CC[C@H]2[C@@H](O)CCC[C@]12C` returned a melting point of 146 to 147 °C.

For `CCCCCCCCCCCCCCc1ccc(OCC2COC(C)(C)O2)c(CC)c1` (stereo not drawn), the melting point lay within 34 to 38 °C.

For the compound `CN(C)c1ccc(C(=O)Nc2cn3cc(-n4ccnc4)ccc3n2)cc1`, the melting point was 247 to 248 °C.

`COc1ccc(-n2nnnc2CC(=O)C(F)(F)F)cc1C=O` registered a melting point of 128 °C.

`CC(C)(C)c1cc(-c2nc3ncccc3o2)cc(C(C)(C)C)c1` came in with a melting point of 154 to 156 °C.

As for `CCCCCN(CCC12CC3CC(CC(C3)C1)C2)C(=O)NCCC(C)c1ccncc1` (stereo not drawn), the melting point fell in the range of 93 to 98 °C.

As to `O=C(Nc1ccccn1)C(CC1CCCC1)c1ccc(-c2cccc3ccccc23)cc1` (stereo not drawn), the melting point fell in the range of 73 to 77 °C.

`CCOC(=O)N1CCC(=C2c3ccc(Cl)cc3CCc3c(On4nnc5ccccc54)ccnc32)CC1`: the melting point was in the range of 182 to 184 °C.

In the case of `COc1ccc(COc2ccc(OC)c(Cc3cnc(N)nc3N)c2)cc1`, the melting point lay in the range of 220 to 221 °C.

Compound `O=C(c1cccs1)c1cccnc1N1CCCC1=O` showed a melting point of 148 to 150 °C.

`CCCCc1ncc(Sc2ccccc2C(=O)O)n1Cc1ccc(C(=O)O)cc1` had a melting point of 260 to 262 °C.

Consider `COc1ccc2c(c1)C(=O)Cc1c(Cl)cccc1S2`, for which the melting point lay within 117 to 120 °C.

Take `Cc1ccc(N)cc1C(=S)OC(C)(C)C`: the melting point lay within 76 to 78 °C.
